According to the supplement of paper PMC11451515:

Columns and labels:
Conditions in all cases: 48 h
[1] = test system: P12-Ichikawa; assay: AUC of viability dose-response curve (% viability x log10 dose units); higher = less sensitive
Outline: (§1)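 Leukemia cells adapted to each medium were seeded in 1536-well plates (500 or 1000 cells/well) and given library compounds in DMSO for 48 h at 37°C. The 11 threefold doses spanned 47 μM to 0.79 nM, and CellTiter-Glo One luminescence was normalised per plate to DMSO and cell-free wells before four-parameter log-logistic fitting on log10 dose. Area under the curve was integrated with the trapezoidal rule, scaling curves above full viability and removing curves that failed quality control.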

[2] = test system: SEM cells; assay: as above
Outline: as §1

[3] = test system: NOMO1; assay: as above
Outline: as §1

[4] = test system: P12-Ichikawa; assay: cell viability relative to DMSO control; higher = less cytotoxic
Outline: (§2)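 NOMO1 or SEM (500 cells/well) or P12-Ichikawa (1000 cells/well) leukemia cells were adapted for at least four passages in each medium. They were seeded in 1536-well plates (5 μl) and pin-dosed with library compounds in DMSO over an 11-point threefold series, 47 μM to 0.79 nM. CellTiter-Glo One luminescence was read after 48 h at 37°C. Viability is the per-plate percentage relative to DMSO wells, with cell-free wells as background.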

[5] = test system: SEM cells; assay: as above
Outline: as §2

[6] = test system: NOMO1; assay: as above
Outline: as §2

CCCCCCOC(=O)/N=C(/N)c1ccc(NCc2nc3cc(C(=O)N(CCC(=O)OCC)c4ccccn4)ccc3n2C)cc1
AUC of viability dose-response curve
Conditions	[1]	[2]	[3]
HPLM + 10% dialyzed FBS	475	448	443
RPMI 5 mM glucose + 10% FBS	465	468	449
RPMI 5 mM glucose + 10% dialyzed FBS	467	475	449

cell viability [%], HPLM + 10% dialyzed FBS
Conditions	[4]	[5]
0.000781 µM	114	112
0.00234 µM	130	113
0.00702 µM	122	124
0.0211 µM	131	125
0.0632 µM	109	123
0.19 µM	138	125
0.569 µM	138	129
1.71 µM	125	134
5.12 µM	145	145
15.4 µM	121	137
46.1 µM	106	125

C[S+](=O)([O-])c1ccc(C(=O)Nc2ccc(Cl)c(-c3ccccn3)c2)c(Cl)c1
AUC of viability dose-response curve
Conditions	HPLM + 10% dialyzed FBS	RPMI 5 mM glucose + 10% FBS	RPMI 5 mM glucose + 10% dialyzed FBS
[1]	464	454	462
[3]	445	468	465

cell viability [%]
Conditions	[4]	[5]	[6]
HPLM + 10% dialyzed FBS, 0.000781 µM	113	97.9	–
HPLM + 10% dialyzed FBS, 0.00234 µM	113	98.7	–
HPLM + 10% dialyzed FBS, 0.00702 µM	123	129	–
HPLM + 10% dialyzed FBS, 0.0211 µM	132	116	–
HPLM + 10% dialyzed FBS, 0.0632 µM	131	126	–
HPLM + 10% dialyzed FBS, 0.19 µM	135	127	–
HPLM + 10% dialyzed FBS, 0.569 µM	136	131	–
HPLM + 10% dialyzed FBS, 1.71 µM	125	122	–
HPLM + 10% dialyzed FBS, 5.12 µM	131	140	–
HPLM + 10% dialyzed FBS, 15.4 µM	126	126	–
HPLM + 10% dialyzed FBS, 46.1 µM	127	144	–
RPMI 5 mM glucose + 10% FBS, 0.000781 µM	–	100	–
RPMI 5 mM glucose + 10% FBS, 0.00234 µM	–	117	–
RPMI 5 mM glucose + 10% FBS, 0.00702 µM	–	129	–
RPMI 5 mM glucose + 10% FBS, 0.0211 µM	–	123	–
RPMI 5 mM glucose + 10% FBS, 0.0632 µM	–	126	–
RPMI 5 mM glucose + 10% FBS, 0.19 µM	–	150	–
RPMI 5 mM glucose + 10% FBS, 0.569 µM	–	121	–
RPMI 5 mM glucose + 10% FBS, 1.71 µM	–	122	–
RPMI 5 mM glucose + 10% FBS, 5.12 µM	–	153	–
RPMI 5 mM glucose + 10% FBS, 15.4 µM	–	25.2	–
RPMI 5 mM glucose + 10% FBS, 46.1 µM	–	139	–
RPMI 5 mM glucose + 10% dialyzed FBS, 0.000781 µM	–	104	119
RPMI 5 mM glucose + 10% dialyzed FBS, 0.00234 µM	–	98.5	110
RPMI 5 mM glucose + 10% dialyzed FBS, 0.00702 µM	–	136	138
RPMI 5 mM glucose + 10% dialyzed FBS, 0.0211 µM	–	120	143
RPMI 5 mM glucose + 10% dialyzed FBS, 0.0632 µM	–	131	130
RPMI 5 mM glucose + 10% dialyzed FBS, 0.19 µM	–	111	136
RPMI 5 mM glucose + 10% dialyzed FBS, 0.569 µM	–	138	139
RPMI 5 mM glucose + 10% dialyzed FBS, 1.71 µM	–	142	144
RPMI 5 mM glucose + 10% dialyzed FBS, 5.12 µM	–	127	144
RPMI 5 mM glucose + 10% dialyzed FBS, 15.4 µM	–	140	135
RPMI 5 mM glucose + 10% dialyzed FBS, 46.1 µM	–	134	128

O=C(CCN1CCN(C(=O)OCc2cc(Cl)cc(Cl)c2)CC1)c1ccc2[nH]c(=O)oc2c1
AUC of viability dose-response curve
Conditions	[1]	[2]	[3]
HPLM + 10% dialyzed FBS	466	472	470
RPMI 5 mM glucose + 10% FBS	454	465	431
RPMI 5 mM glucose + 10% dialyzed FBS	459	469	448

CN1CCN2c3ncccc3Cc3ccccc3C2C1 (stereo unspecified)
[1]
Conditions	AUC of viability dose-response curve
HPLM + 10% dialyzed FBS	470
RPMI 5 mM glucose + 10% FBS	460
RPMI 5 mM glucose + 10% dialyzed FBS	463

cell viability [%]
Conditions	[4]	[5]	[6]
HPLM + 10% dialyzed FBS, 0.000781 µM	122	115	121
HPLM + 10% dialyzed FBS, 0.00234 µM	119	91.6	112
HPLM + 10% dialyzed FBS, 0.00702 µM	113	101	141
HPLM + 10% dialyzed FBS, 0.0211 µM	120	97.4	118
HPLM + 10% dialyzed FBS, 0.0632 µM	122	98.9	138
HPLM + 10% dialyzed FBS, 0.19 µM	115	106	114
HPLM + 10% dialyzed FBS, 0.569 µM	114	22	123
HPLM + 10% dialyzed FBS, 1.71 µM	119	112	135
HPLM + 10% dialyzed FBS, 5.12 µM	114	112	33.4
HPLM + 10% dialyzed FBS, 15.4 µM	108	89.5	98.9
HPLM + 10% dialyzed FBS, 46.1 µM	111	101	108
RPMI 5 mM glucose + 10% FBS, 0.000781 µM	134	116	101
RPMI 5 mM glucose + 10% FBS, 0.00234 µM	118	116	105
RPMI 5 mM glucose + 10% FBS, 0.00702 µM	124	108	110
RPMI 5 mM glucose + 10% FBS, 0.0211 µM	132	121	112
RPMI 5 mM glucose + 10% FBS, 0.0632 µM	129	114	103
RPMI 5 mM glucose + 10% FBS, 0.19 µM	125	129	103
RPMI 5 mM glucose + 10% FBS, 0.569 µM	135	16.9	116
RPMI 5 mM glucose + 10% FBS, 1.71 µM	121	122	110
RPMI 5 mM glucose + 10% FBS, 5.12 µM	117	127	29.5
RPMI 5 mM glucose + 10% FBS, 15.4 µM	112	111	98.8
RPMI 5 mM glucose + 10% FBS, 46.1 µM	101	97	112
RPMI 5 mM glucose + 10% dialyzed FBS, 0.000781 µM	125	137	–
RPMI 5 mM glucose + 10% dialyzed FBS, 0.00234 µM	118	116	–
RPMI 5 mM glucose + 10% dialyzed FBS, 0.00702 µM	113	113	–
RPMI 5 mM glucose + 10% dialyzed FBS, 0.0211 µM	120	124	–
RPMI 5 mM glucose + 10% dialyzed FBS, 0.0632 µM	121	134	–
RPMI 5 mM glucose + 10% dialyzed FBS, 0.19 µM	118	136	–
RPMI 5 mM glucose + 10% dialyzed FBS, 0.569 µM	128	28.7	–
RPMI 5 mM glucose + 10% dialyzed FBS, 1.71 µM	115	129	–
RPMI 5 mM glucose + 10% dialyzed FBS, 5.12 µM	111	126	–
RPMI 5 mM glucose + 10% dialyzed FBS, 15.4 µM	108	124	–
RPMI 5 mM glucose + 10% dialyzed FBS, 46.1 µM	100	122	–

C[C@H]1CC2C3CCC/4=C/C(=O)/C=C\[C@]4(C)[C@@]3(F)[C@@H](O)C[C@]2(C)[C@@]1(O)C(=O)CO (stereo partly specified)
AUC of viability dose-response curve
Conditions	[1]	[2]	[3]
HPLM + 10% dialyzed FBS	374	372	420
RPMI 5 mM glucose + 10% FBS	342	356	450
RPMI 5 mM glucose + 10% dialyzed FBS	330	348	466
